Data as given in PMC3511009, “Modulating the activity of short arginine-tryptophan containing antibacterial peptides with N-terminal metallocenoyl groups” (Beilstein Journal of Organic Chemistry, 2012).
In brackets after ≈: the same amount, converted by molar mass. Read-outs that look alike come from different tables or passages of the source. Square brackets hold non-standard residues; d marks the D form. Peptide text beside a SMILES is read from it. * marks the point of attachment. X1 = O=C([C]12[CH]3[CH]4[CH]5[CH]1[Ru]45321678[CH]2[CH]1[CH]6[CH]7[CH]28)*

Legend:
[1] = tested on: human red blood cells (hRBCs); settings: cited from earlier work
[2] = tested on: human liver carcinoma (HepG2); assay type: cell-based
Method: (§1) Finally, to determine whether the peptides are selective for bacterial cells, we tested the toxicity against mammalian cells using three malignant cell lines: human liver carcinoma (HepG2), human colon adenocarcinoma grade II (HT29) and human breast adenocarcinoma (MCF7) cell lines (Table 5).
(§2) After drawing whole blood into anticoagulant containing tubes (BD Vacutainer®, K2 EDTA 3.6 mg, Ref 368841, Lot 1248213), its fractionation was executed with one volume whole blood added to nine volumes sterile 0.9% NaCl and centrifugation (800g, 10 min, 4 °C). Subsequently, the lowest fraction containing all hRBCs was washed twice with nine volumes 1 × PBS (PAA), triturating carefully. The concentrated hRBCs were re-suspended with 1 × PBS to an erythrocyte concentration of 5% (v/v). Wells of a 96-well plate were filled with 100 µL of the appropriate peptide solutions: The peptides were dissolved in 1 × PBS and DMSO (5% for (RW)3 and 50% for RcCO-W(RW)2). These were mixed with 100 µL of the 5% hRBCs solution and incubated under agitation on a flat shaker (170 rpm, 30 min, 37 °C). After sedimenting all probes under centrifugation (800g, 10 min, 4 °C), all supernatants were transferred into a clean 96-well plate. The release of hemoglobin was monitored by measuring the absorbance of the supernatant at 550 nm using an automated 96-well plate reader. Controls for 0 and 100% hemolysis consisted of hRBC 5% (v/v) suspended in PBS containing DMSO in appropriate concentrations and 1% Triton X-100, respectively. Toxicity on human cancer cell lines was determined according to previously described procedures.

[3] = tested on: human breast adenocarcinoma (MCF7); assay type: cell-based
Method: as §1, §2

[4] = tested on: human colon adenocarcinoma grade II (HT29); assay type: cell-based
Method: as §1, §2

[5] = tested on: human red blood cells (hRBCs); assay: Hemolytic activity; assay type: cell-based
Method: (§3) Although an HC50 value was reported for (RW)3 [53], neither the D-amino acid peptide nor the organometallic derivatized peptides were studied with respect to their hemolytic capacity. Therefore, all peptides were tested in parallel to obtain HC50 values under identical conditions.
as §2, with “After sedimenting all probes under centrifugation (800g, 10 min, 4 °C), all supernatants were transferred into a clean 96-well plate.” left out, “Controls for 0 and 100% hemolysis consisted of hRBC 5% (v/v) suspended in PBS containing DMSO in appropriate concentrations and 1% Triton X-100, respectively.” left out

[6] = tested on: Acinetobacter baumannii DSM 30007; assay: microbe, parasite or virus in culture
Method: (§4) The antibacterial activity of the peptides was first assessed by determining their minimum inhibitory concentration (MIC) value. This MIC value represents the lowest concentration of the antibacterial agent that is needed to hinder the growth of the bacteria. For this, six standard bacterial strains – among them three Gram-negative and three Gram-positive pathogens – were incubated with increasing concentrations of the antibacterial peptide (Table 2). In order to put the activities of these RW-based synAMPs and their organometallic conjugates into perspective, two reference peptides were included, i.e., membrane-targeting gramicidin S derivative GS(K2Y2) and cell wall precursor lipid II-targeting vancomycin.
(§5) The minimal inhibitory concentrations (MIC) were tested against Escherichia coli DSM 30083, Acinetobacter baumannii DSM 30007, Pseudomonas aeruginosa DSM 50071, Bacillus subtilis DSM 402, Staphylococcus aureus DSM 20231 (type strain), and Staphylococcus aureus ATCC 43300 (MRSA) in a microtiter plate assay according to CLSI guidelines. E. coli, A. baumannii, S. aureus, and B. subtilis were grown in Mueller–Hinton (MH) broth, P. aeruginosa in cation adjusted Mueller–Hinton II. […] Serial dilution in culture media was carried out automatically with the Tecan Freedom Evo 75 liquid handling workstation (Tecan, Männedorf, Switzerland) from 512 to 0.5 µg/mL. Peptide dilutions were inoculated with 10^5 bacteria/mL taken from late exponential cultures grown in the same media in a total volume of 200 µL per well. Cells were incubated for 16 h at 37 °C. The lowest peptide concentration inhibiting visible bacterial growth was taken as MIC.
(§6) Cells were grown in DMEM until late exponential phase before using them for inoculation. Peptide concentrations, inoculation and incubation were performed as described above.

[7] = tested on: Staphylococcus aureus DSM 20231 (type strain); assay: microbe, parasite or virus in culture
Method: as §4, §5, §6

[8] = tested on: Bacillus subtilis DSM 402; assay: microbe, parasite or virus in culture; settings: for Minimum inhibitory concentration, B. subtilis: DSM 402, 16 h
Method: as §4, §5, §6

[9] = tested on: three human cancer cell lines (HepG2, HT29, MCF7)
Method: Toxicity on human cancer cell lines was determined according to previously described procedures [67–68].

[10] = tested on: Escherichia coli DSM 30083
Method: as §4, §5, §6

S. aureus (133) = assay: MIC in half-concentrated MH broth, polypropylene plates; assay type: cell-based; settings: 133, 18 h
Method: (§7) Determination of MIC values was performed in 96-well polypropylene microtiter plates (Life Technologies) in order to reduce the AMP binding. A series of 2-fold dilutions of the peptides was prepared directly in the plate in half-concentrated MH broth. The tested strains were grown to an optical density (600 nm) of 0.5 in half-concentrated MH broth and diluted 1:10^5 using the same medium. Then, 100 µL of this suspension was mixed with 100 µL of the peptide solution already prepared in the wells of the microtiter plate as mentioned earlier. […] The results given are mean values of three or more independent determinations.

M. luteus = assay: as above; assay type: cell-based; settings: 18 h
Method: as §7

[11] = tested on: Staphylococcus aureus ATCC 43300 (MRSA); assay: microbe, parasite or virus in culture
Method: as §4, §5, §6

[12] = tested on: Pseudomonas aeruginosa DSM 50071; assay: MIC, microtiter plate assay (CLSI); assay type: cell-based; settings: for Minimum inhibitory concentration, P. aeruginosa: title: in the cell culture medium, CLSI guidelines, µM calculated with one TFA counterion per basic residue
Method: as §4, §5, §6

Hemolytic activity = assay type: cell-based, human; settings: human, at 263 µg/mL (192 µM); 50% DMSO/PBS; relative to Triton X-100; read-out: hemolysis of hRBCs
Method: as §3
as §2, with “After sedimenting all probes under centrifugation (800g, 10 min, 4 °C), all supernatants were transferred into a clean 96-well plate.” left out, “Controls for 0 and 100% hemolysis consisted of hRBC 5% (v/v) suspended in PBS containing DMSO in appropriate concentrations and 1% Triton X-100, respectively.” left out

[13] = title: in the cell culture medium, CLSI guidelines, µM calculated with one TFA counterion per basic residue
[14] = value outside brackets, title: in the cell culture medium

Q: With N=C(N)NCCCC(N)C(=O)NC(Cc1c[nH]c2ccccc12)C(=O)NC(CCCNC(=N)N)C(=O)NC(Cc1c[nH]c2ccccc12)C(=O)NC(CCCNC(=N)N)C(=O)NC(Cc1c[nH]c2ccccc12)C(N)=O (stereo not drawn) [(RW)3] (H-RWRWRW-NH2; configuration not given here) as the compound, how does the “concentration of 50% hemolysis” value [1] read?
A: Its value is ~ 250 µM.

Q: What about the IC50 [2] of the same compound?
A: Its IC50 is 143 ± 21 µM.

Q: What about the IC50 [3] of the same compound?
A: Its IC50 is 159 ± 7 µM.

Q: What about the IC50 [4] of the same compound?
A: The IC50 was 132 ± 12 µM.

Q: And the “concentration up to which no significant destruction of erythrocytes” value [5]?
A: The value was “up to 500 µg/mL”.

Q: And the “Minimum inhibitory concentration, A. baumannii” value ([6]; DSM 30007, 16 h)?
A: The value was 21 µM (≈ 21.9 µg/mL).

Q: And the “Minimum inhibitory concentration, S. aureus” value ([7]; DSM 20231, 16 h)?
A: The value was 11 (11) µM.

Q: What about the “Minimum inhibitory concentration, B. subtilis” value [8] of the same compound?
A: The value was 1.3 µM (≈ 1.36 µg/mL).

Q: What about the IC50 [9] of the same compound?
A: Its IC50 is roughly 140 µM.

Q: And the “Minimum inhibitory concentration, E. coli” value ([10]; DSM 30083, 16 h)?
A: The value was 21 µM (≈ 21.9 µg/mL).

Q: What about the “MIC, S. aureus (133)” value (S. aureus (133)) of the same compound?
A: The value was 2.1 ± 0.7 µg/mL (≈ 2.01 µM).

Q: And the “MIC, M. luteus” value (M. luteus)?
A: Its value is 0.6 ± 0.0 µg/mL (≈ 0.575 µM).

Q: What does the source list for CC(C)C[C@@H]1NC(=O)[C@H](CCCCN)NC(=O)[C@H](C(C)C)NC(=O)[C@@H]2CCCN2C(=O)[C@@H](Cc2ccc(O)cc2)NC(=O)[C@H](CC(C)C)NC(=O)[C@H](CCCCN)NC(=O)[C@H](C(C)C)NC(=O)[C@@H]2CCCN2C(=O)[C@@H](Cc2ccc(O)cc2)NC1=O [GS(K2Y2), cyclo([Pro-Val-Lys-Leu-D-Tyr]2), reference compound] (cyclo(PVKL[dY]PVKL[dY]))?
A: Minimum inhibitory concentration, S. aureus (MRSA) ([11]; ATCC 43300, 16 h): 2.8 µM (≈ 3.36 µg/mL); Minimum inhibitory concentration, S. aureus ([7]; DSM 20231, 16 h): 1.4 µM (≈ 1.68 µg/mL); Minimum inhibitory concentration, B. subtilis [8]: 1.4 µM (≈ 1.68 µg/mL); Minimum inhibitory concentration, P. aeruginosa [12]: n.a. (‘n.a.’ means ‘not active’ (MIC > 100 μM))

Q: With N=C(N)NCCC[C@H](NC(=O)[C@H](Cc1c[nH]c2ccccc12)NC(=O)[C@H](CCCNC(=N)N)NC(=O)[C@H](Cc1c[nH]c2ccccc12)NC(=O)[C]12[CH]3[CH]4[CH]5[CH]1[Ru]45321678[CH]2[CH]1[CH]6[CH]7[CH]28)C(=O)N[C@@H](Cc1c[nH]c2ccccc12)C(N)=O (stereo partly drawn) [RcCO-W(RW)2] (X1-WRWRW-NH2) as the compound, how does the hemolysis at 30 min, 192 µM (Hemolytic activity) read?
A: Its hemolysis at 30 min, 192 µM is 64%.

Q: For CN[C@H](CC(C)C)C(=O)N[C@H]1C(=O)N[C@@H](CC(N)=O)C(=O)N[C@H]2C(=O)N[C@H]3C(=O)N[C@H](C(=O)N[C@H](C(=O)O)c4cc(O)cc(O)c4-c4cc3ccc4O)[C@H](O)c3ccc(c(Cl)c3)Oc3cc2cc(c3O[C@@H]2O[C@H](CO)[C@@H](O)[C@H](O)[C@H]2O[C@H]2C[C@](C)(N)[C@H](O)[C@H](C)O2)Oc2ccc(cc2Cl)[C@H]1O [vancomycin, reference compound], which MIC ([6]; Acinetobacter baumannii, DSM30007, read-out: Minimum inhibitory concentration, A. baumannii) is on record?
A: The MIC was 38 µM (≈ 55.1 µg/mL).

Q: And the MIC ([11]; Staphylococcus aureus, ATCC43300|MRSA, read-out: Minimum inhibitory concentration, S. aureus (MRSA))?
A: The MIC was 0.6 µM (≈ 0.87 µg/mL).

Q: What about the MIC ([7]; Staphylococcus aureus, DSM20231, read-out: Minimum inhibitory concentration, S. aureus) of the same compound?
A: Its MIC is 0.3 µM (≈ 0.435 µg/mL).

Q: And the MIC ([8]; Bacillus subtilis, DSM402, read-out: Minimum inhibitory concentration, B. subtilis)?
A: Its MIC is 0.3 µM (≈ 0.435 µg/mL).

Q: What about the MIC ([12]; Pseudomonas aeruginosa, DSM50071, read-out: Minimum inhibitory concentration, P. aeruginosa) of the same compound?
A: The MIC was greater than 100 µM.

Q: With Ac-RWRWRW-NH2 [Ac(RW)3, Ac-RWRWRW-NH2] as the compound, how does the “Minimum inhibitory concentration, B. subtilis” value [8] read?
A: Its value is 45 µM.

Q: And the “Minimum inhibitory concentration, E. coli” value ([10]; DSM 30083, 16 h)?
A: The value was 45 µM.

Q: With FcCO-RWRWRW-NH2 [FcCO-(RW)3] as the compound, how does the “Minimum inhibitory concentration, E. coli” value [10, 13] read?
A: The value was 20 µM.

Q: Which “Minimum inhibitory concentration, A. baumannii” value [6, 13] does the source give for H-KWKWKW-NH2 [(KW)3] here?
A: The value was “n.a. (‘n.a.’ means ‘not active’ (MIC > 100 μM))”.

Q: And the “Minimum inhibitory concentration, S. aureus (MRSA)” value [11, 14]?
A: Its value is “n.a. (‘n.a.’ means ‘not active’ (MIC > 100 μM))”.

Q: What about the “Minimum inhibitory concentration, S. aureus” value [7, 14] of the same compound?
A: The value was “n.a. (‘n.a.’ means ‘not active’ (MIC > 100 μM))”.

Q: What about the “Minimum inhibitory concentration, P. aeruginosa” value [12] of the same compound?
A: The value was “n.a. (‘n.a.’ means ‘not active’ (MIC > 100 μM))”.

Q: And the “Minimum inhibitory concentration, E. coli” value [10, 13]?
A: Its value is “n.a. (‘n.a.’ means ‘not active’ (MIC > 100 μM))”.
